Test results taken from paper PMC8230625 (International Journal of Molecular Sciences, 2021).
“Also recorded” adds a separate entry of the source.

How the values were obtained:
in vitro = details: human
Experimental: (§1) The HeLa cervical cancer adherent cell line (ATCC: CCL-2) was applied for the evaluation of individual and combined effects of mycotoxins on cell viability. The cells were cultured in DMEM (high glucose, 4500 mg/L) with 10% FBS, penicillin (100 U/mL), and streptomycin (100 μg/mL) in sterile plastic cell culture flasks (75 cm^2; 5% CO2, 37 °C). The cells were trypsinized and plated onto 96-well sterile plastic plates. Stock solutions (each 5000 μM) of ZEN, ZELs, ZAN, and ZALs used in cell experiments were prepared in 96 v/v% ethanol (spectroscopic grade; VWR, Debrecen, Hungary). Stock solutions of AOH (5000 μM or 40 mM) were prepared in spectroscopic grade dimethyl sulfoxide (DMSO; Fluka, Morris Plains, NJ, USA). Mycotoxin stock solutions were stored at −20 °C.
(§2) HeLa cells were treated with ZEN, α/β-ZEL, ZAN, α/β-ZAL, and AOH (0–250 μM) for 24 h. […] The cell viability was evaluated based on the ATP levels/well employing a previously described method without modifications.
(§3) Combined effects were evaluated based on combination indices (CI) determined using the CompuSyn software (ComboSyn Inc., Paramus, NJ, USA) by the median-effect equation of the mass-action law:(1) logfa/fu=m×log(D)−m×log(Dm), where fa and fu are the affected and unaffected fractions of the system, respectively; D represents the dose, Dm denotes the dose necessary for the production of median effect, while m is the sigmoidicity coefficient (m > 1 sigmoidal, m = 1 hyperbolic, m < 1 flat sigmoidal).
(§4) The combined effects of mycotoxins were determined by the CI values calculated based on the following equation [68]:(2) CI=(D)1/(Dx)1+(D)2/(Dx)2, where (Dx)1 and (Dx)2 are the individual doses necessary for the production of x% effect, while (D)1 and (D)2 are the doses of the two compounds that combined evoke the same effect as (Dx)1 alone or (Dx)2 alone, i.e., the targeted x% effect.

HeLa cells = assay: in vitro; details: HeLa; for CI Value (combination index): CompuSyn; for Concentration at (and above) which statistically significant (p < 0.01) decrease in cell viability was noticed: 24 h incubation, single compound; for IC50: Homo sapiens, read-out: Dm (IC50), viability of HeLa cells (ATP/well)
Experimental: as §1, §2, §3, §4

[1] = molecular target: T1, hERα (Saccharomyces cerevisiae BLYES strain) (Homo sapiens, UniProt P03372); assay: cell-based; assay type: cell-based; details: for CI Value (combination index) / Combined Estrogenic Effect / Combined Estrogenic Effect (grade symbol): + 6.28 × 10^−2 µM ZEN; for Combined estrogenic effect in Figure 5B: + 62.8 ×10^-3 μM ZEN
T1 construct: expressed in transfected cells; host or cells: Saccharomyces cerevisiae BLYES strain (hERα gene integrated in the chromosome)
Description: The Saccharomyces cerevisiae BLYES strain was applied to examine the estrogenic activity of the compounds tested. This bioluminescent yeast bioreporter harbors the hERα gene on its chromosome, and it has two plasmids with genes responsible for bioluminescence. The pUTK404 plasmid contains luxC, -D, and -E genes from Photorhabdus luminescens and flavin oxidoreductase gene (frp) from Vibrio harveyi. The pUTK407 plasmid contains tandem estrogen responsive elements (EREs) that initiate the transcription of luxA and luxB genes after binding the dimer formed by estrogen receptor—ligand complexes.
S. cerevisiae BLYES strain was grown in 30 mL of yeast growth medium (YMM leu-, ura-) for 18–20 h at 30 °C.
Stock solutions of the compounds tested were prepared in methanol and stored at −20 °C. Estrogen assays were carried out on 96-well (PS, F-bottom) microplates (Greiner Bio-One Hungary Ltd., Mosonmagyaróvár, Hungary). In single compound tests, stock solutions of the compounds were serially diluted with methanol; whereas, in co-exposure experiments, a 20-µL mixture of the solutions was placed into the wells of the microplates. After the evaporation of methanol, yeast culture (200 µL; OD600 of 1.000 ± 0.050) were pipetted into each well. E2 was applied as a positive control, while wells containing only yeast cells and yeast cells with methanol served as negative and solvent controls, respectively. Bioluminescence (cps, counts per second) was measured after 5-h incubation (30 °C) with a VictorX Multilabel Plate Reader (Perkin Elmer Inc., Waltham, MA, USA).
as §3, §4
Zero percent was defined in each measurement as the mean of the methanol control values, and 100% was defined as the mean of all plateau values of single compounds’ concentration—response curves.

hERα = tested on: hERα; parameters: method as in PMID 16194592; details: cited from earlier work
hERβ = tested on: hERβ; parameters: method as in PMID 16194592; details: cited from earlier work
Ishikawa cells = tested on: Ishikawa cells; parameters: method as in PMID 16194592; details: alkaline phosphatase assay; cited from earlier work
estrogen receptors = tested on: estrogen receptors; parameters: method as in PMID 28910742; details: yeast reporters bioassay; cited from earlier work
androgen receptors = tested on: androgen receptors; parameters: method as in PMID 28910742; details: yeast reporters bioassay; cited from earlier work
[2] = 24 h, 10 µM (lower toxic concentration) of the compound + 20 µM ZEN
[3] = 24 h, 10 µM of the compound + 20 µM ZEN
[4] = 24 h, 30 µM (higher toxic concentration) of the compound + 20 µM ZEN
[5] = 24 h, 30 µM of the compound + 20 µM ZEN
[6] = BLYES, higher estrogenic concentration of the compound (as E22)
[7] = BLYES, lower estrogenic concentration of the compound (as E21)

T1 sequence (P03372 whole entry): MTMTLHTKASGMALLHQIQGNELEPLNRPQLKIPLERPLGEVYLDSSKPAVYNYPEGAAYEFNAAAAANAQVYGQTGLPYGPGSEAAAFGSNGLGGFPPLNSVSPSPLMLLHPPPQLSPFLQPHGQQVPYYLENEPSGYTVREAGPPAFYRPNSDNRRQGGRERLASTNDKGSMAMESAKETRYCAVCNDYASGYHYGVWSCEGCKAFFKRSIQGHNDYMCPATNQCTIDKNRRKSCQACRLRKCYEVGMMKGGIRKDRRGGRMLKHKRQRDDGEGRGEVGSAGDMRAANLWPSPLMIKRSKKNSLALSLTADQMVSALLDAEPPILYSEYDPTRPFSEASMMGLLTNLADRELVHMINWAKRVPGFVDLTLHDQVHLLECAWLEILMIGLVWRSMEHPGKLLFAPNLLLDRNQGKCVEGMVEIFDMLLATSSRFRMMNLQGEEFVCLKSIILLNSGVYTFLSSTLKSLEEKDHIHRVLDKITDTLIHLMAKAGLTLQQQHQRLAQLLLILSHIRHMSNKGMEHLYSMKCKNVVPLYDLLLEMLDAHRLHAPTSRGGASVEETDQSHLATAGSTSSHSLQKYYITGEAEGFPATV

In the case of Cc1cc(O)cc2oc(=O)c3c(O)cc(O)cc3c12 [AOH, alternariol], the cytotoxicity at 24 h, 10 µM (in vitro; Decrease in cellular ATP levels (% of control), individual effect, HeLa, 24 h, single compound at 10 μM) is reported as 13.6%, the cytotoxicity at 24 h, 30 µM (in vitro; Decrease in cellular ATP levels (% of control), individual effect, HeLa, 24 h, single compound at 30 μM) is reported as 32.4% and the “Combined cytotoxic effect in Figure 3B” value (HeLa cells; [2]) is reported as “Syn and synergism”. For the same molecule, the “Combined Cytotoxic Effect” value (HeLa cells; [3]) was “Synergism (CI < 0.8: synergism)”, the “Combined Cytotoxic Effect (grade symbol)” value (HeLa cells; [3]) was “+ (0.60 < CI < 0.80: +)” and the “CI Value (combination index)” value (HeLa cells; [3]) was 0.73. The “Combined cytotoxic effect in Figure 3B” value (HeLa cells; [4]) was “Syn and synergism”, the “Combined Cytotoxic Effect” value (HeLa cells; [5]) was “Synergism (CI < 0.8: synergism)” and the “Combined Cytotoxic Effect (grade symbol)” value (HeLa cells; [5]) was “++ (CI < 0.60: ++)”. The “CI Value (combination index)” value (HeLa cells; [5]) was 0.50, the “Concentration at (and above) which statistically significant (p < 0.01) decrease in cell viability was noticed” value (HeLa cells) was 10 µM and the IC50 (HeLa cells; 24 h) was 33.6 µM. For the same molecule, the “Effect of subtoxic (non-estrogenic) concentration of the compound on the estrogenic effect of ZEN” value ([1]; BLYES, co-treatment with ZEN (approx. 20% estrogenicity), α-ZEL 1.56 × 10^−3 µM, ZAN 6.24 × 10^−3 µM, AOH up to 48.4 µM, Figure 5A) was “did not cause any relevant change; also recorded: did not increase the estrogenic effect of ZEN”, the “Estrogenic effect in BLYES assay” value ([1]; single compound, even at 50 µM) was “did not induce estrogenic effects; also recorded: did not show estrogenicity” and the “Fold lower affinity toward hERα compared to 17β-estradiol (E2)” value (hERα) was 10,000 fold. For the same molecule, the “Fold lower affinity toward hERβ compared to 17β-estradiol (E2)” value (hERβ) was 2500 fold, the “Fold weaker estrogenic effects vs. E2” value (Ishikawa cells) was 10,000 fold and the “Behaviour at estrogen receptors” value (estrogen receptors) was “weak partial agonist”. For the same molecule, the “Behaviour at androgen receptors” value (androgen receptors) was “full agonist”.

For C[C@H]1CCC[C@@H](O)CCC/C=C/c2cc(O)cc(O)c2C(=O)O1 [β-ZEL, β-zearalenol], the cytotoxicity at 10 µM (in vitro) was 19.7%, the cytotoxicity at 30 µM (in vitro) was 33.1% and the “Combined cytotoxic effect in Figure 3B” value (HeLa cells; [2]) was “Syn”. The “Combined Cytotoxic Effect” value (HeLa cells; [3]) was “Synergism (CI < 0.8: synergism)”, the “Combined Cytotoxic Effect (grade symbol)” value (HeLa cells; [3]) was “+ (0.60 < CI < 0.80: +)” and the “CI Value (combination index)” value (HeLa cells; [3]) was 0.64. For the same molecule, the “Combined cytotoxic effect in Figure 3B” value (HeLa cells; [4]) was “Add”, the “Combined Cytotoxic Effect” value (HeLa cells; [5]) was “Additive effect (0.8 < CI < 1.2: additive effect)” and the “Combined Cytotoxic Effect (grade symbol)” value (HeLa cells; [5]) was “± (0.80 < CI < 1.20: ±)”. The “CI Value (combination index)” value (HeLa cells; [5]) was 1.07, the “Effect of the non-toxic (subtoxic) concentration of the compound on ATP levels of ZEN-exposed cells” value (HeLa cells; 24 h, co-exposure with toxic concentration of ZEN (20 μM), compared to ZEN-exposed cells, Figure 3A) was “statistically significant (p < 0.01) decreases in ATP levels” and the “Concentration at (and above) which statistically significant (p < 0.01) decrease in cell viability was noticed” value (HeLa cells) was 10 µM. The IC50 (HeLa cells; 24 h) was 39.4 µM, the EC50 [1] was 2.4 µM and the “CI Value (combination index)” value ([1]; BLYES, higher concentration (µM): α-ZEL 1.25 × 10^−2, β-ZEL 2.43, ZAN 4.99 × 10^−2, α-ZAL 2.48 × 10^−2, β-ZAL 2.48 × 10^−1, GEN 1.48) was 0.95. For the same molecule, the “Combined Estrogenic Effect” value [1, 6] was “Additive effect (0.8 < CI < 1.2: additive effect)”, the “Combined Estrogenic Effect (grade symbol)” value [1, 6] was “± (0.80 < CI < 1.20: ±)” and the “CI Value (combination index)” value ([1]; BLYES, lower concentration (µM): α-ZEL 6.24 × 10^−3, β-ZEL 1.22, ZAN 2.50 × 10^−2, α-ZAL 1.24 × 10^−2, β-ZAL 1.24 × 10^−1, GEN 7.4 × 10^−1) was 0.77. For the same molecule, the “Combined Estrogenic Effect” value [1, 7] was “Synergism (CI < 0.8: synergism)”, the “Combined Estrogenic Effect (grade symbol)” value [1, 7] was “+ (0.60 < CI < 0.80: +)” and the “Combined estrogenic effect in Figure 5B” value ([1]; BLYES, higher estrogenic concentration of the compound (as E20)) was “additive effects”. For the same molecule, the “Combined estrogenic effect in Figure 5B” value ([1]; BLYES, lower estrogenic concentration of the compound (as E19)) was “synergism” and the “Concentration at (and above) which statistically significant (p < 0.01) estrogenic effect was observed” value ([1]; BLYES, single compound) was 0.31 µM.
